Source: PMC6017115, “Inhibitory Effect of Sauchinone on UDP-Glucuronosyltransferase (UGT) 2B7 Activity” (Molecules : A Journal of Synthetic Chemistry and Natural …, 2018)

Tests used:
Ugt1a9 = biological target: T1, Ugt1a9 (Mus musculus, UniProt Q62452); assay: Inhibition of Ugt1a9 (propofol) in mice liver microsomes; type: in vitro ADME; conditions: pH 7.6, probe propofol (100 μM, in UGT substrate cocktail), read-out: IC50 of Ugt1a9-catalyzed propofol
T1 construct: from tissue; host or cells: mouse liver microsomes prepared in house
T1 sequence (Q62452 24-528): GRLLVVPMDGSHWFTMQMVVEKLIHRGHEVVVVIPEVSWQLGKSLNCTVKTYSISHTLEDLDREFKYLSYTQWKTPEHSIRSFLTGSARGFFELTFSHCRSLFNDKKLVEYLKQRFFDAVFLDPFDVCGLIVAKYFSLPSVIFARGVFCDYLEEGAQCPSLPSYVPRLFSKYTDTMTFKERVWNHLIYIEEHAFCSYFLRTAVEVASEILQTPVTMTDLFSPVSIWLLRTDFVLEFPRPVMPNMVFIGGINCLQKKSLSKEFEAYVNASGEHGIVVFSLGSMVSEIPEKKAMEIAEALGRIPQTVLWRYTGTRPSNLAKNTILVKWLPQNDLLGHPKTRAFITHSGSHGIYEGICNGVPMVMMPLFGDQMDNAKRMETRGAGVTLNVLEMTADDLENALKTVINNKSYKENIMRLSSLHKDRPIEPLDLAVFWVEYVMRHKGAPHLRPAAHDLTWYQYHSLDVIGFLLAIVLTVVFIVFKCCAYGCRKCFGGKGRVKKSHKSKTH
Experimental: (§1) Their IC50 values were compared to that of sauchinone. […] Mice were sacrificed and then livers were removed and rinsed with saline. After weighing the livers, they were homogenized with a four-fold volume of ice-cold homogenizing buffer (0.154 M KCl, 50 mM Tris-base, 1 mM EDTA, pH 7.4). After centrifugation for 35 min at 9000× g and 4 °C, the supernatants were centrifuged for 95 min at 100,000× g and at 4 °C. The supernatants were discarded and the pellets were homogenized again with ice-cold homogenizing buffer. These aliquots were stored at −80 °C. The subsequent process to evaluate the inhibitory effects of sauchinone on UGT activities in MLM was the same as those using HLM. UGT-mediated activities in the presence of sauchinone as an inhibitor were expressed as percentages of corresponding control values (in absence of sauchinone). From percentages of control activity versus inhibitor concentrations, a sigmoid shaped curve was fitted to the data and IC50 as an enzyme inhibition parameter was calculated by fitting the Hill equation to the data using GraphPad Prism 5 (GraphPad Software Inc., San Diego, CA, USA).

Ugt2b7 [1] = assay: Ki for Ugt2b7 in mouse liver microsomes; type: in vitro ADME; conditions: our unpublished data
[2] = design: method as in PMID 25747980; conditions: mice; oral administration of 100 mg/kg sauchinone; read-out: Cmax in mice plasma; cited from earlier work
Ugt1a1 = biological target: T2, Ugt1a1 (Mus musculus, UniProt Q63886); assay: Inhibition of Ugt1a1 (β-estradiol) in mice liver microsomes; type: in vitro ADME; conditions: pH 7.6, probe β-estradiol (10 μM, in UGT substrate cocktail), read-out: IC50 of Ugt1a1-catalyzed β-estradiol
T2 construct: from tissue; host or cells: mouse liver microsomes prepared in house
T2 sequence (Q63886 30-535): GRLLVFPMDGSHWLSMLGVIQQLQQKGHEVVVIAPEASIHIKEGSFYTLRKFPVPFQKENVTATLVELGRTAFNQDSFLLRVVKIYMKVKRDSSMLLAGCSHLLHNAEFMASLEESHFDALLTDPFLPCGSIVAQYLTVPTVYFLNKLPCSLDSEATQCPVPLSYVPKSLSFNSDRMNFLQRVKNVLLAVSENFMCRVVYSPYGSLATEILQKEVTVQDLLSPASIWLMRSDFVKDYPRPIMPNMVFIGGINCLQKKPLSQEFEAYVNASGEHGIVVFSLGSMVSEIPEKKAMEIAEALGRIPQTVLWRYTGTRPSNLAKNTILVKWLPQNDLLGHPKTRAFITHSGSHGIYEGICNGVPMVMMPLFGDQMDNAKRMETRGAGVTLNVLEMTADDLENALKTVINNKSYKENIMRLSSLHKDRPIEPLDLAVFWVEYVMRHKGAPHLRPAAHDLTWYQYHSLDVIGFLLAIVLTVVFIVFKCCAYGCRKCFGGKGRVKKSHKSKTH
Experimental: as §1

UGT2B7 [3] = biological target: T3, UGT2B7 (Homo sapiens, UniProt P16662); assay: Enzyme kinetic assay (Ki, Dixon plot) of UGT2B7-mediated zidovudine glucuronidation; conditions: for inhibition mode on UGT2B7: Dixon plot, visual inspection
T3 sequence (P16662 24-529): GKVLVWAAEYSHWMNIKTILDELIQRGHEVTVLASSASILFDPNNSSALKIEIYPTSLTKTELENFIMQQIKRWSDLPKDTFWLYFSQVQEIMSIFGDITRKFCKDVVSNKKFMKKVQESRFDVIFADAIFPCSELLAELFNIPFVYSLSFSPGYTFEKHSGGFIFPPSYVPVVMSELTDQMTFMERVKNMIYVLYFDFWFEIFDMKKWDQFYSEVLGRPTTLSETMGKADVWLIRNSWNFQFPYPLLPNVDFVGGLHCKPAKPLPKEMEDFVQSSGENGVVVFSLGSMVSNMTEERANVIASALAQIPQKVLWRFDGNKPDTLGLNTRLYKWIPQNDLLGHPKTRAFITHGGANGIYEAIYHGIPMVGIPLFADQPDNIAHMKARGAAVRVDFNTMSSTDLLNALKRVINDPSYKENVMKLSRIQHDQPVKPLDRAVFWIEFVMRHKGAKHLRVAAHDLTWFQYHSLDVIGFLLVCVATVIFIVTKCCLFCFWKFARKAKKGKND
Experimental: Inhibitory effects of sauchinone on UGT1A1, 1A3, 1A4, 1A6, 1A9, and 2B7 activities were evaluated using HLMs. […] Spiked volume of UGT cocktail set was 1% (v/v) of total volume of mixture. […] The reaction was initiated by adding 5 mM UDPGA to a final volume of 150 μL and incubated at 37 °C for 15 or 60 min in a thermomixer at 500 rpm. Each reaction was stopped by adding 150 μL of ice-cold methanol containing 50 ng/mL IS. These mixtures were then centrifuged (12,000 rpm for 10 min at 4 °C) and 5 μL of the supernatant was injected into a UPLC-MS/MS system. […] Their IC50 values were compared to that of sauchinone. All inhibitors were dissolved in methanol (except for hecogenin, which was dissolved in dimethyl sulfoxide) and serially diluted to the required concentrations using the same solutions. The final concentration of organic solvent of inhibitors was 1% (v/v). All studies were performed in triplicate and mean values were used in the analysis. The half maximal inhibition constant (IC50) of sauchinone on UGT isoforms was estimated using GraphPad program.
Based on IC50 values, Ki values of sauchinone for UGT1A6 and 2B7 were determined. Concentrations of 0–200 μM of sauchinone were used. Other procedures were similar to those mentioned above in the study of reversible inhibitory effects of sauchinone. Inhibitory characteristics of sauchinone were initially estimated by nonlinear least squares regression analysis and Ki values were determined by Dixon plots.

IC50 (Ugt1a9): 29.8 µM
Ki (Ugt2b7 [1]): 3.34 µM
IC50 (Ugt1a1): 152 µM
Ki (UGT2B7 [3]): 0.524 µM
inhibition mode on UGT2B7 (UGT2B7 [3]): noncompetitively inhibited
inhibition mode on UGT2B7 (UGT2B7 [3]; listed as sauchinone): noncompetitive inhibition mode
Vmax for UGT2B7-mediated zidovudine glucuronidation with inhibitor (UGT2B7 [3]; sauchinone as inhibitor at 50 μM (decrease from 31.5 at 0 μM)): 0.495 μM/min/mg protein
Structure (SMILES): C[C@@H]1[C@H]2c3cc4c(cc3O[C@@]35OCOC3=CC(=O)[C@H](C[C@H]1C)[C@@H]25)OCO4 [Sauchinone]
Cmax [2]: 1530 nM
